According to patent publication US6683230B1, “Hybrid seed production” (Syngenta Limited, priority 1998, dated 2004):
Like-named read-outs stand apart in the source and are kept apart here.

Tests used:
AlcA promoter [1] = tested on: AlcA promoter
AlcA promoter [2] = tested on: AlcA promoter; remark: listed apart in the source
Description: 1) Oilseed rape (OSR) AlcA-GUS plants were root drenched with 250m1 of either water, 1% or 2% ethanol both on day 0 and day 1. Flower samples from these plants were then taken two days after the first induction.
The first two bars in each section represent uninduced anther and uninduced stigma/style GUS levels respectively. Each bar represents three replicates with each replicate containing anthers from three different flowers or stigma/styles from eight different flowers or ovaries from six different flowers.
2) Oilseed rape Aic-GUS flowers were subjected to GUS staining following induction with ethanol.
(§1) Flower material was ground in 2-300 μl of extraction buffer (100 mM sodium phosphate buffer pH 7, 10 mM EDTA, 0.1% Triton X-100, 1% Sarcosyl, 10 mM b-mercaptoethanol). Samples were spun in a microcentrifuge for 15 min and 5 μl of the supernatant was used for Bradford protein assays with BSA as standard. 20 μl was diluted 1 in 5 with extraction buffer and 400 μl of assay buffer (same for extraction buffer except contains 1 mM 4-MUG and 20% methanol). 100 μl was taken (T0 sample) and added to 900 μl of stop buffer (0.2M sodium carbonate) and the rest was incubated at 37° C. for two hours before taking a further 100 μl (T2 samples) to be added to 900 μl stop buffer.
(§2) Florescence of samples was measured in a spectrophotometer and GUS was represented as nM 4M U per mg protein per hour.
(§3) For the GUS staining, the protocol of Blume and Grierson (1997) was used.

AlcA promoter [3] = tested on: AlcA promoter; remark: listed apart in the source
Description: as §1, §2, §3

AlcA promoter [4] = conditions: ethanol vapour, 2-3 days
Description: Scutellum tissue is bombarded with pUIRN.AGS and the tissue exposed to ethanol vapour. […] Transgenic Alc-GUS plants obtained are grown to maturity and seed harvested, inducible GUS expression is determined on the progeny plants in the same way as described above for rice.
as §3

AlcA promoter [5] = conditions: after induction with ethanol
AlcA promoter [6] = conditions: 0.1% (v/v) ethanol in medium, 3 weeks
Description: as §1, §2

AlcA promoter [7] = conditions: ethanol vapour, two days after induction
Description: Alc-GUS tomoato flowers were induced using ethanol vapour as described above for tobacco flowers. Two days after induction, anthers and pollen were stained to detect GUS expression.
as §3

[8] = tested on: safener induced GST-27 promoter; assay: Reversal of sterility in GST-27-barstar maize WU25 by safener; format: in vivo
Description: The corn transformation vector Zm/RMS14 (described above) carries a barstar gene fused to the safener induced GST-27 promoter. WU25 was shown by PCR to contain this gene fusion. […] There was no effect of the safener on the size or fertility of tassels on non-transgenic fertile plants. […] The resumption of microspore development appears to be linked to the barstar inhibition of barnase thus overcoming the ablation of tapetal cells. […] In contrast, the anthers from sterile plants were collapsed.
The same promoter fragment was fused to barnase to generate the corn transformation vector ZM/RMS14 (FIG. 30). This fusion also contained an out of frame barstar gene with a functional bacterial promoter to provide protection against barnase during the cloning steps. Transgenic maize plants were obtained and several progressed for further analysis. One plant WU25 in particular was studied in some detail by analysing progeny derived from crosses with pollen from a fully fertile plant. All progeny inheriting the transgene as assessed by PCR and leaf paint to detect the pat gene were completely sterile, whereas progeny lacking the transgene were fully fertile. […] In all other respects sterile plants were indistinguishable from their fertile non-transgenic siblings.

lac repressor = conditions: tobacco protoplasts and stable transformants; cited from earlier work

## CCO [ethanol]
AlcA promoter [1]; AlcA promoter
  concentration at which induction of GUS expression was observed: 7 ng/100 ml air
AlcA promoter [1]; in vivo
  toxicity to operators and environment: non-toxic to operators and to the environment
AlcA promoter [1]; root drench, aqueous spray or gas
  concentration at which the inducer is effective: 1%
AlcA promoter [2]; 2% ethanol root drench
  GUS levels, all tissues examined: increase in GUS from both uninduced levels and from the water-treated control plant
AlcA promoter [2]; 5% ethanol treated plant vs water-treated
  GUS staining of pistils: induction of GUS in the female tissues
AlcA promoter [2]; cut flower stem in 5% ethanol, two days
  GUS staining of whole inflorescence: Blue staining is apparent in the filaments, sepals, petals and the stigma/style regions of the flower
AlcA promoter [2]; root drench 2% ethanol, two days
  GUS staining of pistil sections: induction of GUS throughout the pistil region
AlcA promoter [2]; root drench 250 ml 1% or 2% ethanol day 0 and day 1, sampled two days after first induction
  GUS levels in floral tissues: increase in GUS levels in floral tissues
AlcA promoter [2]; two days after root drench with 250 ml of 5% ethanol
  GUS staining of flower: reporter gene induction in the stigma/style region as well as the filaments
AlcA promoter [3]; cut flower stems in 1%, 2% or 5% ethanol, two days
  GUS in anthers: induced by ethanol in the anthers at levels above those seen in the water treated flowers
AlcA promoter [3]; root drench 250 ml 5% ethanol, two days
  GUS staining of pistils: induction of GUS in the pistils
AlcA promoter [3]; vapour from 50 ml of 5% ethanol in sealed bag, 3 days
  GUS in anthers: higher levels of GUS
AlcA promoter [4]
  GUS staining of bombarded scutellum tissue: numerous blue spots are seen
AlcA promoter [5]
  reporter gene (CAT) levels in floral tissues: increase in reporter gene levels in floral tissues
AlcA promoter [6]
  GUS levels in callus: levels can be increased with the addition of ethanol
AlcA promoter [7]
  GUS staining of anthers and pollen: blue staining was observed in both tissues

## CC1CN(C(=O)C(Cl)Cl)C(C)(C)O1 (centres unmarked) [R-29148]
[8]; extended treatment with safener
  microsporogenesis: anthers filled with immature post-mitotic pollen
[8]; foliar application, field grown plants
  microspore development and tassel size: A similar effect was seen
[8]; non-transgenic fertile plants
  size or fertility of tassels: no effect
[8]; root drench, glass house
  microspore development in anthers: microspore development was observed
[8]; root drench, glass house grown plants
  reversal of sterility: Reversal of sterility was demonstrated
[8]; treated vs untreated transgenic plants
  tassel size: increased tassel size relative to untreated plants

## CC(C)S[C@@H]1O[C@H](CO)[C@H](O)[C@H](O)[C@H]1O [IPTG]
Lac repressor
  repression of GUS expression by lac repressor: repression can be relieved
